Reference: patent US9023857B2, “Substituted 6-(2-aminobenzylamino)purine derivatives, their use as medicaments and preparations containing these compounds” (Univerzita Palackeho V Olomouci, priority 2009, dated 2015)
Entries after “also recorded” stand apart in the source; their conditions may differ.

Key:
[1] = tested on: pRb (Ser780, Ser807, Thr821) in MCF7 cells; assay: Immunoblot analysis of pRb phosphorylation in MCF7 cells; format: cell-based, human; conditions: MCF7 cells treated for 24 h, immunoblot (FIG. 2)
Experimental: Cell were detached with rubber policeman and washed three times with ice-cold PBS and lysed in buffer (50 mM Tris, pH 7.4, 250 mM NaCl, 5 mM EDTA, 50 mM NaF, 1 mM Na3VO4, 1% Nonidet P40) containing mixture of protease and phosphatase inhibitors (Sigma-Aldrich St Louis, Mo., USA). 20 μg of total proteins were separated by SDS-polyacrylamide gel electrophoresis (SDS-PAGE) on 8% or 10% gels and transferred onto nitrocellulose membranes. Membranes were blocked in 5% milk and 0.1% Tween 20 in PBS and probed overnight with specific monoclonal antibodies or rabbit polyclonal sera. Primary antibodies specific for RNA polymerase II (all from Santa Cruz Biotechnology, California, USA) included: (i) N-20 used at 1 μg/ml, (ii) H14, specific for form phosphorylated at phosphoserine 5, used at 6 μg/ml and (iii) H5, specific for form phosphorylated at phosphoserine 2 used at 4 μg/ml. Additional primary mAb used in immunblots included (iv) anti-p53 (DO-1, in house) used at 1 μg/ml, (v) anti-p21^WAF1 (118, in house), used at 1 μg/ml), (vi) anti-actin (A-2066, Sigma-Aldrich St Louis, Mo., USA) used at 1 μg/ml, (vii) anti-T-antigen (419, in house), used at 1 μg/ml. All primary antibodies were diluted in PBS containing 5% powdered milk; 0.1% Tween 20. […]

[2] = tested on: p53-responsive reporter pRGCΔfoslacZ in murine fibroblasts T22lacZ; assay: p53-dependent transcriptional activity, β-galactosidase reporter in T22lacZ cells; format: cell-based; conditions: 5 μM
[3] = tested on: p53 protein in BT549 (mut p53) breast cancer cell line; assay: p53 protein expression in BT549 cells (immunoblotting); format: cell-based, human; conditions: BT549 (mutant p53), 5 μM, 6, 12 and 24 hrs
Experimental: (a) DO-1, DO-2 and 1801 monoclonal antibodies recognise the N-terminal region of p53 protein, monoclonal antibodies DO-11 and DO-12 recognise different epitopes in the core domain of p53 protein, monoclonal antibodies Bp53-10 and Pab421 recognise the C-terminal region of p53 protein. (b) Monoclonal antibody 118 recognises p21^WAF1.
For direct immunoblotting, total cellular protein lysates were prepared by harvesting cells in hot Laemmli electrophoresis sample buffer. Proteins were then separated by SDS-polyacrylamide gel electrophoresis (SDS-PAGE) on 10% gel and transferred onto a nitrocellulose membrane in Bio.Rad Mini Trans-Blott Electrophoretic Transfer Cell for 2 hrs at 4° C. applying 150 mA in transfer buffer ([…], 190 mM glycine and 20% methanol). Prestained molecular weight markers (Bio-Rad) were run in parallel. […]
First, we determined appropriate concentration of 103 and 105 for our experiments. The MCF-7 (wt p53) cells were treated for 12 hrs with increasing concentrations of 105 ranging from 1 to 100 μM and analysed for p53 protein expression using monoclonal antibody DO-1 (FIG. 3A). […] We analysed the expression of p53 protein in MCF-7 (wt p53), BT549 (mut p53) and BT474 (mut p53) breast cancer cell lines, in HT29 (mut p53) colorectal cancer cell line and in ostaosarcoma cell line HOS (mut p53). […]

HSV-1 = assay: Plaque number reduction assay, HSV-1 on HFFF; format: cell-based, Herpes simplex virus type 1 strain 17
HAd4 = assay: Plaque number reduction assay, HAd4 on A549; format: cell-based, Human adenovirus type 4 (HAdV-4) strain RI-6
[4] = tested on: SV40 large T-antigen in COS-1 cells; assay: Expression from SV40 promoter incorporated in the cellular genome (COS-1 cells); format: cell-based; conditions: COS-1 cells (FIG. 10)
Experimental: Cell were detached with rubber policeman and washed three times with ice-cold PBS and lysed in buffer (50 mM Tris, pH 7.4, 250 mM NaCl, 5 mM EDTA, 50 mM NaF, 1 mM Na3VO4, 1% Nonidet P40) containing mixture of protease and phosphatase inhibitors (Sigma-Aldrich St Louis, Mo., USA). 20 μg of total proteins were separated by SDS-polyacrylamide gel electrophoresis (SDS-PAGE) on 8% or 10% gels and transferred onto nitrocellulose membranes. Membranes were blocked in 5% milk and 0.1% Tween 20 in PBS and probed overnight with specific monoclonal antibodies or rabbit polyclonal sera. Primary antibodies specific for RNA polymerase II (all from Santa Cruz Biotechnology, California, USA) included: (i) N-20 used at […] (ii) H14, specific for form phosphorylated at phosphoserine 5, used at 6 μg/ml and (iii) H5, specific for form phosphorylated at phosphoserine 2 used at 4 μg/ml. Additional primary mAb used in immunblots included (iv) anti-p53 (D0-1, in house, […]) used at 1 μg/ml, (v) anti-p21^WAF1 (118, in house), used at 1 μg/ml), (vi) anti-actin (A-2066, Sigma-Aldrich St Louis, Mo., USA) used at 1 μg/ml, (vii) anti-T-antigen (419, in house, Lane), used at 1 μg/ml. All primary antibodies were diluted in PBS containing 5% powdered milk; 0.1% Tween 20. […]

[5] = tested on: A549 lung adenocarcinoma xenograft; assay: In vivo anticancer activity, human xenograft model of A549 lung adenocarcinoma
[6] = tested on: HIV promoter integrated into cellular DNA (H1299-HIV cells); assay: β-galactosidase expression from pHIV-lacZ incorporated to cellular genome (H1299-HIV); conditions: HIV promoter integrated into cellular DNA (FIG. 11)

## CCC(CO)Nc1nc(NCc2ccccc2N)c2ncn(C(C)C)c2n1 (stereo not shown) [Compound 105, 2-({6-[(2-aminobenzyl)amino]-9-isopropyl-9H-purin-2-yl}amino)butan-1-ol]
[1]
  phosphorylation of pRb at Ser780, Ser807 and Thr821: Reduced phosphorylation
[2]
  blue-coloured cells (β-galactosidase activity, X-gal substrate): about 25%
[3]
  induction of p53: No induction
HSV-1
  inhibition of virus replication (in words): inhibited replication
HAd4
  inhibition of virus replication (in words): inhibited HAd4 replication; also recorded: profound effect
[4]
  large T-antigen expression: stimulated large T-antigen expression
[5]; CD-1 SCID mice, orally twice daily 150 mg/kg, Days 1-3 and 7-9
  tolerability in animals: good tolerability
[5]; CD-1 SCID mice, orally twice daily 150 mg/kg, P=0.0409 versus vehicle
  tumor volume analysis: significantly smaller tumors
[5]; as printed in the A549 tumor volume paragraph
  mean survival time: 15.4 days
[6]
  increase of reporter readout: 4 times
